One series relates to cholinesterase. The settings on record: Chinese Patent No. ZL 03104541.3; result in words; cited from earlier work.
Series [1] relates to aconitine-induced arrhythmia in rats. The experiment in a line: Aconitine-induced arrhythmia in rats. In kind it is in vivo, Wistar rats. Conditions: for Occurrence time CA / Occurrence time VF / Occurrence time VP / Occurrence time VT: 50 min before aconitine 20 μg/kg i.v., n=10, x±s; for Antagonistic action against the arrhythmia induced by aconitine in rats: 100 and 200 mg/kg intragastric, result in words. As for the experimental part:
(§1) Models of experimental arrhythmia induced by aconitine and ouabain in rats and guinea pigs were constructed. The inventive compound and the hydrochloride thereof were administrated with dosages of 100 and 200 mg/kg, respectively. The positive medicament group was administrated with 10 mg/kg of Propranolol, and the control group was administrated with 0.5% carboxymethylcellulose sodium. Each group was administrated by gastric perfusion once. The occurrence times of ventricular premature contraction (VP), ventricular tachycardia (VT), ventricular fibrillation (VF) and cardiac arrest (CA) after administration of aconitine in rats were recorded; and the dosages of ouabain were also observed when VP, VT, VF and CA appeared.
Sixty Wistar rats were divided into 6 groups randomly: a control group, a positive medicament (Propranolol) group, high- and low-dosage groups (200 and 100 mg/kg) of the inventive compound and the hydrochloride thereof, respectively, 10 animals per group. Fifty minutes after intragastric administration, the animals of each groups were anaesthetized by injecting 10% chloral hydrate intraperitoneally and fixed in a supine position. A type II lead normal electrocardiogram was then recorded. After that, 20 μg/kg of aconitine was injected via sublingual vein, and the change of the electrocardiogram was observed. The occurrence times of ventricular premature contraction (VP), ventricular tachycardia (VT), ventricular fibrillation (VF) and cardiac arrest (CA) after administration of aconitine in the rats were recorded.
(§2) The experimental data were analyzed with the statistic software SPSS 10.0, and represented as x±s. The comparison among groups was analyzed by the intergroup comparison difference t test.

Series [2] relates to ouabain-induced arrhythmia in guinea pigs. The experiment in a line: Ouabain-induced arrhythmia in guinea pigs. It is filed as in vivo, EWG/B guinea pigs. The settings on record: for Dosages of ouabain CA / Dosages of ouabain VF / Dosages of ouabain VP / Dosages of ouabain VT: ouabain infused 5 μg/min, n=6, x±s; for Antagonistic action against the arrhythmia induced by ouabain in guinea pigs: 100 and 200 mg/kg intragastric, result in words. As for the experimental part: as §1
Thirty-six guinea pigs were divided into 6 groups randomly: a control group, a positive medicament (Propranolol) group, high- and low-dosage groups (200 and 100 mg/kg) of the inventive compound and the hydrochloride thereof, respectively, 6 animals per group. Fifty minutes after intragastric administration, the animals of each groups were anaesthetized by injecting 10% chloral hydrate intraperitoneally and fixed in a supine position. After the external jugular vein was separated, intubation was performed and a constant-speed micro-infusion apparatus was installed. Then a type II lead normal electrocardiogram was recorded. After that, ouabain was infused via the external jugular vein at a constant rate of 5 μg/min, and the change of the electrocardiogram was observed. The dosages of ouabain when VP, VT, VF and CA occurred after administration of ouabain in the guinea pigs were recorded.
as §2

Series [3] deals with arrhythmia induced by coronary artery ligation in rats. The experiment in a line: Arrhythmia induced by coronary artery ligation in rats. In kind it is in vivo, Wistar rats. Conditions: for Incidence rate of arrhythmia CA / Incidence rate of arrhythmia VF / Incidence rate of arrhythmia VT / Occurrence times CA / Occurrence times VF / Occurrence times VP / Occurrence times VT: rats, coronary artery ligation; for Occurrence times CA / Occurrence times VF / Occurrence times VP / Occurrence times VT: x±s. As for the experimental part: Models of experimental arrhythmia induced by coronary artery ligation in rats were constructed. The inventive compound was administrated in a dose of 50, 100, 200 mg/kg, respectively. […] Each group wa administrated by gastric perfusion once. The occurrence times and the incidence rates of ventricular premature contraction (VP), ventricular tachycardia (VT), ventricular fibrillation […] and cardiac arrest (CA) after coronary artery ligation in rats were recorded.
The experimental data were analyzed with the statistic software SPSS 10.0, and represented as x±s. The intergroup comparison was analyzed by the intergroup difference comparison t test. The incidence rates were compared by χ^2 test.

The conditions of series [4]: background statement; result in words; cited from earlier work.
The mark [5] stands for this setting: 100 mg/kg intragastric, 100 mg/kg.
Setting [6] is: 200 mg/kg intragastric, 200 mg/kg.
Setting [7] is: 50 mg/kg by gastric perfusion once.
Where [8] appears, read: 100 mg/kg by gastric perfusion once.
[9] abbreviates: 200 mg/kg by gastric perfusion once.

The values below come from patent publication US8722701B2, “1,2,3,4,5 6,7,8-octohydro-9-phenylacetamidoacridine, the preparation method and medical use thereof” (priority 2010, dated 2014).

Counter-ions that a name gives are not always drawn. Marks after values point to notes of the source that are not given here.

The compound `O=C(Cc1ccccc1)Nc1c2c(nc3c1CCCC3)CCCC2` (as salt: hydrochloride) [Hydrochloride of the inventive compound, hydrochloride of 1,2,3,4,5,6,7,8-octohydro-9-phenylacetamidoacridine] showed a melting point of 231 to 234 °C.
The same measure, in the same setting: the same measure for `O=C(Cc1ccccc1)Nc1c2c(nc3c1CCCC3)CCCC2` (hydrate or solvate) [Inventive compound, 1,2,3,4,5,6,7,8-octohydro-9-phenylacetamidoacridine]: 234 to 236 °C.
On to `Nc1c2c(nc3c1CCCC3)CCCC2` [9-amino-1,2,3,4,5,6,7,8-octohydroacridine], for which, in the series on cholinesterase, the “Inhibition activity for cholinesterase” value is on record as “proved to have an inhibition activity for cholinesterase”.
For the compound `O=C(Cc1ccccc1)Nc1c2c(nc3c1CCCC3)CCCC2` [Hydrochloride of the inventive compound, hydrochloride of 1,2,3,4,5,6,7,8-octohydro-9-phenylacetamidoacridine], in series [1] (setting [5]), the “Occurrence time CA” value stood at 907.2 ± 250.6 s, the “Occurrence time VF” value was 640.4 ± 217.3 s, the “Occurrence time VP” value came out at 17.3 ± 7.8 s and the “Occurrence time VT” value is 84.4 ± 19.0 s. In addition, in series [1] (setting [6]), the “Occurrence time CA” value was 911.2 ± 186.4 s, the “Occurrence time VF” value was determined as 660.2 ± 204.7 s, the “Occurrence time VP” value was 22.6 ± 6.1 s and the “Occurrence time VT” value is 98.6 ± 21.3 s. In addition, in series [1], the “Antagonistic action against the arrhythmia induced by aconitine in rats” value is “significant antagonistic actions”. Also, in series [2] (setting [5]), the “Dosages of ouabain CA” value was 280.3 ± 41.5 µg/kg, the “Dosages of ouabain VF” value turned out to be 235.3 ± 36.3 µg/kg, the “Dosages of ouabain VP” value was 171.8 ± 38.4 µg/kg and the “Dosages of ouabain VT” value stood at 189.7 ± 30.3 µg/kg. In series [2] (setting [6]), the “Dosages of ouabain CA” value came to 370.4 ± 66.7 µg/kg, the “Dosages of ouabain VF” value was 298.7 ± 49.1 µg/kg, the “Dosages of ouabain VP” value was found to be 189.5 ± 25.4 µg/kg and the “Dosages of ouabain VT” value worked out at 230.4 ± 35.3 µg/kg. Further, the “Antagonistic action against the arrhythmia induced by ouabain in guinea pigs” value in series [2] was “significant antagonistic actions”.
In the case of `O=C(Cc1ccccc1)Nc1c2c(nc3c1CCCC3)CCCC2` [Inventive compound, 1,2,3,4,5,6,7,8-octohydro-9-phenylacetamidoacridine], in series [1] (setting [5]), the “Occurrence time CA” value came out at 910.1 ± 276.5 s, the “Occurrence time VF” value was 621.6 ± 203.7 s, the “Occurrence time VP” value turned out to be 16.9 ± 8.3 s and the “Occurrence time VT” value is 82.7 ± 21.0 s. In series [1] (setting [6]), the “Occurrence time CA” value worked out at 905.7 ± 170.3 s, the “Occurrence time VF” value was found to be 650.4 ± 193.3 s, the “Occurrence time VP” value is 20.7 ± 6.9 s and the “Occurrence time VT” value is 95.6 ± 20.6 s. The “Antagonistic action against the arrhythmia induced by aconitine in rats” value in series [1] was “significant antagonistic actions”. In series [2] (setting [5]), the “Dosages of ouabain CA” value is 283.0 ± 46.5 µg/kg, the “Dosages of ouabain VF” value was 230.5 ± 46.4 µg/kg, the “Dosages of ouabain VP” value turned out to be 174.9 ± 41.7 µg/kg and the “Dosages of ouabain VT” value is 184.1 ± 28.8 µg/kg. In series [2] (setting [6]), the “Dosages of ouabain CA” value worked out at 371.3 ± 69.6 µg/kg, the “Dosages of ouabain VF” value turned out to be 294.5 ± 51.9 µg/kg, the “Dosages of ouabain VP” value came to 185.5 ± 24.8 µg/kg and the “Dosages of ouabain VT” value worked out at 228.3 ± 36.6 µg/kg. Further, in series [2], the “Antagonistic action against the arrhythmia induced by ouabain in guinea pigs” value was “significant antagonistic actions”. The “Antagonistic action against the experimental arrhythmia induced by coronary artery ligation in rats” value in series [3] (rats, 50, 100, 200 mg/kg by gastric perfusion, result in words) is listed as “significant antagonistic action”. In series [3] (setting [7]), the “Incidence rate of arrhythmia CA” value turned out to be 21.4%, the “Incidence rate of arrhythmia VF” value is listed as 35.7%, the “Incidence rate of arrhythmia VT” value came to 42.8% and the “Occurrence times CA” value is 1141.8 ± 161.9 s. In addition, in series [3] (setting [7]), the “Occurrence times VF” value was found to be 930.5 ± 379.4 s, the “Occurrence times VP” value was 82.3 ± 79.0 s and the “Occurrence times VT” value is 773.8 ± 344.3 s. Moreover, in series [3] (setting [8]), the “Incidence rate of arrhythmia CA” value is given as 14.3* %, the “Incidence rate of arrhythmia VF” value is 14.3* %, the “Incidence rate of arrhythmia VT” value is given as 28.6* % and the “Occurrence times CA” value amounted to 1163.4 ± 124.6 s. Moreover, in series [3] (setting [8]), the “Occurrence times VF” value was determined as 1148.3 ± 193.6 s, the “Occurrence times VP” value is 90.1 ± 39.7 s and the “Occurrence times VT” value worked out at 920.5 ± 270.6 s. For the same compound, in series [3] (setting [9]), the “Incidence rate of arrhythmia CA” value was 12.5* %, the “Incidence rate of arrhythmia VF” value is reported as 12.5* %, the “Incidence rate of arrhythmia VT” value is 12.5** % and the “Occurrence times CA” value stood at 1176.4 ± 729.2 s. Also, in series [3] (setting [9]), the “Occurrence times VF” value came out at 1115.0 ± 138.8 s, the “Occurrence times VP” value came out at 107.3 ± 67.9 s and the “Occurrence times VT” value came out at 1043.2 ± 247.1 s.
Take `CC(C)NCC(O)COc1cccc2ccccc12` (stereo not shown) [Propranolol, reference compound]: in series [1] (10 mg/kg intragastric), the “Occurrence time CA” value is 913.7 ± 208.6 s, the “Occurrence time VF” value worked out at 705.6 ± 233.2 s, the “Occurrence time VP” value turned out to be 23.6 ± 6.9 s and the “Occurrence time VT” value was 101.6 ± 32.5 s. In series [2] (10 mg/kg intragastric), the “Dosages of ouabain CA” value turned out to be 390.6 ± 64.4 µg/kg, the “Dosages of ouabain VF” value is 323.2 ± 71.4 µg/kg, the “Dosages of ouabain VP” value came to 201.3 ± 55.6 µg/kg and the “Dosages of ouabain VT” value turned out to be 240.7 ± 48.78 µg/kg.
With `Nc1c2c(nc3ccccc13)CCCC2` [Tacrine, 9-amino-1,2,3,4-tetrahydroacridine], the Hepatotoxicity result in series [4] is listed as “has a hepatotoxicity”.

As usually defined, the melting point is the temperature, or range, at which the solid turns liquid.
